Assay results as given in ChEMBL document CHEMBL1201862, “PubChem BioAssay data set” (2004).
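Step 1: Grow cells in 96-well plates. Step 2: Expose to compound for 48 hours at 5 concentrations. Step 3: Interpolate endpoints linearly; if unreached, use highest concentration. Here, GI50 denotes the concentration required for 50% inhibition of growth.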 Active and inactive are the calls of the source. No stated cut-off is given here; in the data, active = GI50 up to about 1.1 µM and inactive = higher.

Legend:
Assay in all cases: inhibition of tumour cell growth, NCI panel, 48 h
[1] = system: OVCAR-5
[2] = system: UO-31
[3] = system: KM12
[4] = system: NCI-H522
[5] = system: NCI-H460
[6] = system: HL-60
[7] = system: SK-MEL-2
[8] = system: MOLT-4
[9] = system: OVCAR-3
[10] = system: SK-OV-3
[11] = system: UACC-257
[12] = system: HCT-116
[13] = system: NCI-H226
[14] = system: SW-620
[15] = system: Malme-3M
[16] = system: K562
[17] = system: LOX IMVI
[18] = system: MDA-MB-435
[19] = system: T47D
[20] = system: MDA-N

Row | SMILES | GI50 [1] | GI50 [2] | GI50 [3] | GI50 [4] | GI50 [5] | GI50 [6] | GI50 [7] | GI50 [8] | GI50 [9] | GI50 [10] | GI50 [11] | GI50 [12] | GI50 [13] | GI50 [14] | GI50 [15] | GI50 [16] | GI50 [17] | GI50 [18] | GI50 [19] | GI50 [20]
1 | CN1CN(C2OC(CO)C(O)C2O)c2nc(N)[nH]c(=O)c21 (stereo unspecified) | > 100 µM (inactive) | > 100 µM (inactive) | > 100 µM (inactive) | 5.15 µM (inactive) | > 100 µM (inactive) | > 100 µM (inactive) | > 100 µM (inactive) | > 100 µM (inactive) | > 100 µM (inactive) | > 100 µM (inactive) | > 100 µM (inactive) | > 100 µM (inactive) | > 100 µM (inactive) | > 100 µM (inactive) | > 100 µM (inactive) | > 100 µM (inactive) |  |  |  | 
2 | CCSc1nnc(CSc2nc(-c3ccccc3)c(-c3ccccc3)[nH]2)n1-c1ccccc1 | 14.5 µM (inactive) | 17.1 µM (inactive) | 16.9 µM (inactive) | 16.4 µM (inactive) | 18.9 µM (inactive) | 25.8 µM (inactive) | 21.7 µM (inactive) | 15.2 µM (inactive) | 15.9 µM (inactive) | 26.4 µM (inactive) | 18.6 µM (inactive) | 18.2 µM (inactive) | 14.1 µM (inactive) | 16.6 µM (inactive) | 20 µM (inactive) | 25.3 µM (inactive) | 22.9 µM (inactive) |  |  | 
3 | CCC(=O)NCC1(c2c[nH]c3ccccc23)SCCS1 | > 100 µM (inactive) |  | > 100 µM (inactive) | > 100 µM (inactive) | > 100 µM (inactive) | > 100 µM (inactive) | > 100 µM (inactive) | 42.4 µM (inactive) | > 100 µM (inactive) | > 100 µM (inactive) | > 100 µM (inactive) | 48.1 µM (inactive) | > 100 µM (inactive) | > 100 µM (inactive) | > 100 µM (inactive) | > 100 µM (inactive) | > 100 µM (inactive) |  |  | 
4 | COc1ccc(NC(=O)CC/C(CC(=O)c2ccco2)=N/NC(=O)C(N)=O)cc1 | > 100 µM (inactive) | > 100 µM (inactive) | > 100 µM (inactive) | 53 µM (inactive) | > 100 µM (inactive) | 36 µM (inactive) | > 100 µM (inactive) | 46.9 µM (inactive) | 46 µM (inactive) | > 100 µM (inactive) | 54.5 µM (inactive) |  | > 100 µM (inactive) | > 100 µM (inactive) | 98.9 µM (inactive) | 28.1 µM (inactive) | > 100 µM (inactive) |  |  | 
5 | COc1cc2c(cc1OC)-c1cc(OC)c(OC)cc1[C@H]1CN3CCC[C@@]3(O)C=C21 | < 0.0001 µM (active) | < 0.0001 µM (active) | < 0.0001 µM (active) | < 0.0001 µM (active) | < 0.0001 µM (active) | < 0.0001 µM (active) | < 0.0001 µM (active) | < 0.0001 µM (active) | < 0.0001 µM (active) | < 0.0001 µM (active) | < 0.0001 µM (active) | < 0.0001 µM (active) | < 0.0001 µM (active) | < 0.0001 µM (active) | < 0.0001 µM (active) | < 0.0001 µM (active) | < 0.0001 µM (active) |  |  | 
6 | Cc1nc2ccc(F)cc2c2c1CCN2c1ccccc1 |  | 19 µM (inactive) | 23.9 µM (inactive) | 17.8 µM (inactive) | 13.5 µM (inactive) | 7.43 µM (inactive) |  | 15.1 µM (inactive) | 30.5 µM (inactive) |  | 18.2 µM (inactive) | 8.18 µM (inactive) | 16.6 µM (inactive) | 23.4 µM (inactive) | 20.2 µM (inactive) | 11.8 µM (inactive) | 13.8 µM (inactive) | 14.1 µM (inactive) | 23.7 µM (inactive) | 
7 | N/N=c1/nc2n(c3ncccc13)C=CNN2 | > 100 µM (inactive) |  | > 100 µM (inactive) | > 100 µM (inactive) | > 100 µM (inactive) | > 100 µM (inactive) | > 100 µM (inactive) | > 100 µM (inactive) | > 100 µM (inactive) | > 100 µM (inactive) | > 100 µM (inactive) | > 100 µM (inactive) | > 100 µM (inactive) | > 100 µM (inactive) | > 100 µM (inactive) | > 100 µM (inactive) | > 100 µM (inactive) |  |  | 
8 | O=C1c2ccccc2C(=O)c2c1c1cc(O)ccc1n2Cc1ccc(Cl)cc1Cl | 1.89 µM (inactive) | 19.1 µM (inactive) | 14.4 µM (inactive) |  | 3.63 µM (inactive) | 46.7 µM (inactive) | 16 µM (inactive) | 15.3 µM (inactive) |  | 1.75 µM (inactive) | 25.1 µM (inactive) | 6.18 µM (inactive) | 11.5 µM (inactive) | 8.17 µM (inactive) | 22.8 µM (inactive) | 32.2 µM (inactive) | 2.9 µM (inactive) | 9.42 µM (inactive) |  | 12.1 µM (inactive)
